Assay results from paper PMC7024556 (Molecules, 2020).

What was measured:
[1] = system: poly (ADP-ribose) (PAR) polymerization in HeLa cells; assay: Cellular PARylation assay (H2O2-induced PAR polymerization); assay type: cell-based; conditions: for IC50: Homo sapiens, 18 h compound, 500 μM H2O2, read-out: Inhibit Polymerization of PAR IC50
Description: The cellular PARylation assay evaluated the ability of test compounds to inhibit polymerization of PAR. Hela cells were seeded in 96-well plates (10,000 cells/well) in 200 μL of cell complete medium, and were allowed to adhere for 4 h at 37 °C in a humidified atmosphere of 5% CO2. The medium was then removed from the plates, and the cells were treated with varying concentrations of test compounds for 18 h. 100 μL serum-free medium with 500 μM H2O2 solution was added, and the plate was kept at 37 °C for 5 min. Next, cells were fixed for 20 min with prechilled methanol at −20 °C and were incubated with 60 μL Poly(ADP-ribose) monoclonal antibody (1:2000) (prepared at 1x PBS containing 0.05% Tween-20 with 1% bovine serum albumin) at 37 °C for 2 h, followed by incubation with 60 μL IRDye 800CW goat anti-mouse IgG (diluted to 1:5000) and DNA stain DRAQ5 (1:5000) (prepared at 1× PBS containing 0.05% Tween-20 with 1% bovine serum albumin) at 37 °C for 2 h. The fluorescent signal was normalized with the DRAQ5 signal, and IC50 values were calculated using GraphPad Prism 8.0 software.

[2] = system: MX-1 cells (BRCA1-deficient); assay: Cell proliferation assay (CellTiter-Glo), MX-1; assay type: cell-based; conditions: for IC50: Homo sapiens, MX1, light or radiation study, 10 days incubation
Description: (§1) To assess the cytotoxicity of test compounds on BRCA-deficient cells using a CellTiter-Glo assay. MX-1 cells (BRCA1-deficient) and Capan-1 cells (BRCA2-deficient) were seeded in 96-well plates at densities that allowed linear growth for 10 days, and adhered overnight at 37 °C in a humidified atmosphere of 5% CO2. Cells were treated in their recommended growth medium containing varying concentrations of test compounds. […] After 10 days of incubation, CellTiter-Glo Reagent (Promega, Madison, WI, USA) was added to the plates, which continued to be incubated for 30 min at room temperature. Chemiluminescence values were recorded by a multiplate reader, and IC50 values were calculated using GraphPad Prism 8.0 software.

PARP = PARP inhibitor potency; cited from earlier work
[3] = Talazoparib UV stability assay (HPLC); assay type: physicochemical; conditions: 2.63 mM in methanol, 365 nm, up to 10 min
Description: The irradiation times were 1 min, 2 min, 3 min, 4 min, 5 min, and 10 min. The irradiated solution was transferred to a volumetric flask and diluted to the same volume with methanol. Then HPLC analysis was performed to detect the compound peak area. […] California, CA, USA) using a mobile phase A (water) and mobile phase B (acetonitrile (ACN)) to elute. The gradient changed from 70% A to 30% A in 10 min, then continuing to elute with 30% A for 5 min. The flow rate was 1 mL/min, and the detection wavelength was 220 nm.

[4] = system: Capan-1 cells (BRCA2-deficient); assay: Cell proliferation assay (CellTiter-Glo), Capan-1; assay type: cell-based; conditions: for IC50: Homo sapiens, CAPAN-1, light or radiation study, 10 days incubation
Description: as §1

[5] = Phosphate-buffered saline stability of the photoactivatable prodrug (HPLC); assay type: physicochemical; conditions: 20 μM, pH = 7.4 PBS with 10% DMSO, 37 °C, 48 h
Description: Twenty μM of the test compound in pH = 7.4 PBS, containing 10% DMSO, were transferred to 13 1 mL volumetric flasks in equal volumes, incubated at 37 °C. The volumetric flasks were taken out at 0 min, 5 min, 10 min, 15 min, 30 min, 1 h, 2 h, 4 h, 8 h, 12 h, 24 h, 48 h, and 7 days, and were frozen at −80 °C. The samples were thawed in sequence and diluted to the same volume with methanol. Then HPLC analysis was performed to detect the compound peak area. Samples were determined on an Agilent Eclipse Plus C18 column (4.6 × 150 mm, 5 μm particle size; California, CA, USA) using a mobile phase A (water) and mobile phase B (ACN) to elute. The gradient changed from 70% A to 30% A in 10 min, continuing to elute with 30% A for 5 min. The flow rate was 1 mL/min, and the detection wavelength was 220 nm.

[6] = UV cleavage test in culture medium DMEM in 96-well plate (HPLC); assay type: physicochemical; conditions: 10 μM in DMEM, 365 nm, 3 min
Description: Therefore, we tested the Capan-1 cells that could tolerate a longer UV irradiation duration. […] We simulated the same cytotoxicity experimental conditions to evaluate the photolysis of 10 μΜ compound 3 (10 μM is the starting concentration of compound 3 in cytotoxicity experiments) in a 96-well plate.
Supplementary Materials: Design, Synthesis and In Vitro Evaluation of the […]
Jiaguo Li 1, 2, Dian Xiao 2, Lianqi Liu 2, Fei Xie 2, Wei Li 2, Wei Sun 1,*, Xiaohong Yang 1,*, and Xinbo Zhou 2,* […]
wavelength scanning; (B) Local UV/Vis absorption spectra with a wavelength range of 290-500 nm. Compound […]
Introduction of the PPG into the parent compound's molecular structure leads to increased light absorption around 365 nm. Wavelengths shorter than 300 nm is highly energetic and can easily damage tissues and cells. Therefore, 365 nm was considered as the optimal wavelength for deprotection.
Figure S2. UV-cleavage test on the Compound 3 in culture medium DMEM. Compound 3 were dissolved in DMEM medium containing 0.1 %DMSO and added to 96-well plates at a final concentration of 10 μM. After being irradiated for 1 min and 3 min at 365 nm respectively, the samples were analyzed by HPLC. The peak area is plotted against the irradiation time. […]

PARP-1 enzyme = target: T1, PARP-1 enzyme (Homo sapiens, UniProt P09874); assay: PARP-1 enzyme inhibition assay (PARP-1 Chemiluminescent Assay Kit); assay type: biochemical
T1 construct: purchased BPS 80569
Description: A PARP-1 Chemiluminescent Assay Kit (Cat# 80569, BPS, San Diego, CA, USA) was used to detect the ability of compounds to inhibit PARP-1 enzyme activity. All experimental steps followed the operating manual. Firstly, each well was precoated with 25 μL 1× histone mixture that was diluted in PBS by incubation at 4 °C overnight. The wells were blocked by adding 100 μL of blocking buffer, then incubated at room temperature for 90 min. Then 12.5 μL of the prepared 1× PARP assay mixture and 1× activated DNA in 1× PARP buffer were added into each well of the assay plate, and 2.5 μL of compound or solvent control were added at varying concentrations. The reaction was initiated by the addition of 10 μL 1 ng/μL PARP-1 enzyme in 1× PARP buffer at room temperature for 60 min. Next, the reaction solution was added with 25 μL of diluted Streptavidin-HRP (1:50 in blocking buffer) to each well at room temperature for an additional 30 min. Finally, 25 μL of Horseradish Peroxidase (HRP) chemiluminescent substrate A and 25 μL of HRP chemiluminescent substrate B were mixed on ice, and the mixture was added by 50 μL per well. The luminescent signal was measured using a multi-function microplate reader, and IC50 values were calculated using GraphPad Prism 8.0 software.

[7] = UV cleavage test in methanol (HPLC); assay type: physicochemical; conditions: 20 μM in methanol, 365 nm UV
Description: The compound was dissolved in methanol (20 μM), and the solution were irradiated at 365 nm by using an UV crosslinker. Every minute from 0 to 10 min, aliquot samples (200 μL) were determined on an Agilent Eclipse Plus C18 column (4.6 × 150 mm, 5 μm particle size) using mobile phase A (water) and mobile phase B (ACN) to elute. The gradient changed from 70% A to 30% A in 10 min, continuing to elute with 30% A for 5 min. The flow rate was 1 mL/min and the detection wavelength was 220 nm. The peak areas percentage of the compounds at each time point were plotted against the sampling time.

[8] = UV+, compound irradiated 20 min at 365 nm before addition to cells

T1 sequence (P09874 whole entry): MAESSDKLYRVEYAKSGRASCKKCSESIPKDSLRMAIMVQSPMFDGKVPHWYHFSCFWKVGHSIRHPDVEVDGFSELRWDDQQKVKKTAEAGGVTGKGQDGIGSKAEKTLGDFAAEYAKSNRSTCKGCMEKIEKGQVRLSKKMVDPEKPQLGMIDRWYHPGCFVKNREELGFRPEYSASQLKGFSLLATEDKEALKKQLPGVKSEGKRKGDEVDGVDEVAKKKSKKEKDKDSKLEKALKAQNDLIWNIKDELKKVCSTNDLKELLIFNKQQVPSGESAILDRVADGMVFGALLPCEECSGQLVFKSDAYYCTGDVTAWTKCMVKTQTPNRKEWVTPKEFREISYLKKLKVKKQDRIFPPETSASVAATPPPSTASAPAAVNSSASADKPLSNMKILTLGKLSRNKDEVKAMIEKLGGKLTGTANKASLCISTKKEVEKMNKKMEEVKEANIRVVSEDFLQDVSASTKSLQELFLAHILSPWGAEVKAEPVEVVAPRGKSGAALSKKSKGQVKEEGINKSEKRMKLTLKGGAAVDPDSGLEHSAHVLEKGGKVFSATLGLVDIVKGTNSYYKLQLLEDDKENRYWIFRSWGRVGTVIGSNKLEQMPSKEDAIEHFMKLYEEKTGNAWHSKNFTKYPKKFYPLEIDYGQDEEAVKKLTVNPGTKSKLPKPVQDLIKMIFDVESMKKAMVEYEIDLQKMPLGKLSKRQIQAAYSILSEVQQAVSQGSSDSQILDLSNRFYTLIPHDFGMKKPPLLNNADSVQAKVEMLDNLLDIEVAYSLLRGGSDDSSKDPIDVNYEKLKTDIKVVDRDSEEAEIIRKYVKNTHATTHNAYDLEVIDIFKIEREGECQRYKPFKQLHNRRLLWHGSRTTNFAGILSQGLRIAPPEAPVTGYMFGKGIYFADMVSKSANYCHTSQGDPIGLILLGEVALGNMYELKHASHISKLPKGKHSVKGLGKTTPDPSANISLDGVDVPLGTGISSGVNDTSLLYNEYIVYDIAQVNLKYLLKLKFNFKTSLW

SMILES | IC50 [1] [µM] | IC50 ([2]; 240 h, UV-, no irradiation) [µM] | IC50 (PARP) [µM] | UV stability (HPLC peak area) [3] | IC50 ([4]; 240 h, UV-, no irradiation) [µM] | stability in PBS (HPLC peak area) [5] | decrease of PARylation inhibitory activity versus Talazoparib ([1]; ratio of IC50 values) [times] | IC50 ([2]; UV+, 365 nm irradiation of cells 1 min after 1 h incubation) [µM] | inhibitory activity on MX-1 cells after UV irradiation versus non-irradiated group ([2]; UV 1 min vs no UV) | release after UV irradiation under cytotoxicity experimental conditions [6] | IC50 ([4]; UV+, 365 nm irradiation of cells 3 min after 1 h incubation) [µM] | inhibitory activity on Capan-1 cells after UV irradiation versus non-irradiated group ([4]; UV 3 min vs no UV) | IC50 (PARP-1 enzyme) [µM] | reduction of PARP-1 inhibitory activity versus Talazoparib (PARP-1 enzyme; ratio of IC50 values, compound 3 vs Talazoparib) [times] | irradiation time to complete release (photolysis) [7] [min] | IC50 [2, 8] [µM] | IC50 [4, 8] [µM]
Cn1ncnc1[C@H]1c2n[nH]c(=O)c3cc(F)cc(c23)N[C@@H]1c1ccc(F)cc1 [Talazoparib, reference compound] | […] | 0.015 | […] | no significant loss | 0.003 | – | – | – | – | – | – | – | – | – | – | – | –
Cn1ncnc1[C@H]1c2nn(Cc3cc4c(cc3[N+](=O)[O-])OCO4)c(=O)c3cc(F)cc(c23)N[C@@H]1c1ccc(F)cc1 [compound 3, (8S,9R)-5-Fluoro-8-(4-fluorophenyl)-9-(1-methyl-1H-1,2,4-triazol-5-yl)-2-((6-nitrobenzo[d][1,3]dioxol-5-yl)methyl)-2,7,8,9-tetrahydro-3H pyrido[4,3,2-de]phthalazin-3-one] | 0.329 | 1.87 | – | – | 0.863 | did not show significant changes | ≥ 658 | 0.577 | approximately three times higher | not released completely | 0.092 | nine times higher | 1.92 | 380 | 3 | – | –
C[C@H](NC(=O)OC(C)(C)C)C(=O)OCc1cc2c(cc1[N+](=O)[O-])OCO2 [compound 6, (6-Nitrobenzo[d][1,3]dioxol-5-yl)methyl (tert-butoxycarbonyl)-L-alaninate] | – | > 10 | – | – | > 10 | – | – | – | – | – | – | – | – | – | ≤ 20 | > 10 | > 10
